Measurements from PubChem BioAssay AID2060893 (Molecular Pharmacology Branch, DTP, NCI, 2025).
Values joined by “and” are separate entries in the source; they are usually repeats but may differ in a detail not shown here. Identical values can stand only once.

System: K86415-001-R-J1-PDC complex spheroids, viability
Assay: Anticancer human tumor K86415-001-R-J1-PDC patient-derived lung adenocarcinoma cell line growth inhibition [RAS]
Conditions: for viability, T/C: stronger effect = lower value
Summary of the method: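 Tumour cells grown as complex spheroids with HUVEC endothelial cells and mesenchymal stem cells, treated with RAS pathway inhibitor combinations. Each agent spans half-log steps from near clinical Cmax, or 10 microM where Cmax is unknown.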

[1] = curve of first compound, second compound 0.0316 µM
[2] = curve of first compound, second compound 0.1 µM
[3] = curve of first compound, second compound 0.316 µM
[4] = curve of first compound, second compound 1 µM
[5] = second compound 0.0316 µM, first compound 0.0316 µM
[6] = second compound 0.0316 µM, first compound 0.1 µM
[7] = second compound 0.0316 µM, first compound 0.316 µM
[8] = second compound 0.0316 µM, first compound 1 µM
[9] = second compound 0.1 µM, first compound 0.0316 µM
[10] = second compound 0.1 µM, first compound 0.1 µM
[11] = second compound 0.1 µM, first compound 0.316 µM
[12] = second compound 0.1 µM, first compound 1 µM
[13] = second compound 0.316 µM, first compound 0.0316 µM
[14] = second compound 0.316 µM, first compound 0.1 µM
[15] = second compound 0.316 µM, first compound 0.316 µM
[16] = second compound 0.316 µM, first compound 1 µM
[17] = second compound 1 µM, first compound 0.0316 µM
[18] = second compound 1 µM, first compound 0.1 µM
[19] = second compound 1 µM, first compound 0.316 µM
[20] = second compound 1 µM, first compound 1 µM
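Also: spheroids exposed to agents for seven days before readout.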

CCN1CCN(Cc2ccc(Nc3ncc(F)c(-c4cc(F)c5nc(C)n(C(C)C)c5c4)n3)nc2)CC1 + C=CC(=O)N1CCN(c2nc(OCC3CCCN3C)nc3c(F)c(-c4nc(N)cc(C)c4C(F)(F)F)c(Cl)cc23)C(C)C1
IC50 (curve of first compound, second compound 0.00316 µM): < 3.16 nM
IC50 (curve of first compound, second compound 0.01 µM): < 3.16 nM
IC50 [1]: < 3.16 nM
IC50 [2]: < 3.16 nM
IC50 [3]: < 3.16 nM
IC50 [4]: < 3.16 nM
viability, T/C (second compound 0.00316 µM, first compound 0.00316 µM): 17.1%
viability, T/C (second compound 0.00316 µM, first compound 0.01 µM): 15.9%
viability, T/C (second compound 0.00316 µM, first compound 0.0316 µM): 13.3%
viability, T/C (second compound 0.00316 µM, first compound 0.1 µM): 15%
viability, T/C (second compound 0.00316 µM, first compound 0.316 µM): 18.7%
viability, T/C (second compound 0.00316 µM, first compound 1 µM): 33.9%
viability, T/C (second compound 0.01 µM, first compound 0.00316 µM): 10.3%
viability, T/C (second compound 0.01 µM, first compound 0.01 µM): 11.2%
viability, T/C (second compound 0.01 µM, first compound 0.0316 µM): 12.3%
viability, T/C (second compound 0.01 µM, first compound 0.1 µM): 10.7%
viability, T/C (second compound 0.01 µM, first compound 0.316 µM): 13.3%
viability, T/C (second compound 0.01 µM, first compound 1 µM): 24.8%
viability, T/C (second compound 0.0316 µM, first compound 0.00316 µM): 9.79%
viability, T/C (second compound 0.0316 µM, first compound 0.01 µM): 12.9%
viability, T/C [5]: 11%
viability, T/C [6]: 10.2%
viability, T/C [7]: 11%
viability, T/C [8]: 18.5%
viability, T/C (second compound 0.1 µM, first compound 0.00316 µM): 10.1%
viability, T/C (second compound 0.1 µM, first compound 0.01 µM): 10.5%
viability, T/C [9]: 9.47%
viability, T/C [10]: 8.04%
viability, T/C [11]: 10.6%
viability, T/C [12]: 14.2%
viability, T/C (second compound 0.316 µM, first compound 0.00316 µM): 9.47%
viability, T/C (second compound 0.316 µM, first compound 0.01 µM): 8.55%
viability, T/C [13]: 9.15%
viability, T/C [14]: 9.51%
viability, T/C [15]: 12.2%
viability, T/C [16]: 17.6%
viability, T/C (second compound 1 µM, first compound 0.00316 µM): 9.7%
viability, T/C (second compound 1 µM, first compound 0.01 µM): 11.8%
viability, T/C [17]: 11.7%
viability, T/C [18]: 10.2%
viability, T/C [19]: 11.2%
viability, T/C [20]: 18.3%

C=CC(=O)Nc1cc(Nc2nccc(-c3cn(C)c4ccccc34)n2)c(OC)cc1N(C)CCN(C)C
viability, T/C (compound 0.00316 µM): 105% [middle of 4 runs]
viability, T/C (compound 0.01 µM): 98.8% [middle of 4 runs]
viability, T/C (compound 0.0316 µM): 101% [middle of 4 runs]
viability, T/C (compound 0.1 µM): 85.1% (2×) and 93.4% and 76.6%
viability, T/C (compound 0.316 µM): 67.2% [middle of 4 runs]
viability, T/C (compound 1 µM): 40.9% [middle of 4 runs]
IC50 (curve of compound): 659 nM [middle of 4 runs]

CC1(O)CCCC1n1c(=O)c(C(F)F)cc2cnc(NC3CCN(S(C)(=O)=O)CC3)nc21 (stereo unspecified) + C#Cc1c(F)ccc2cc(O)cc(-c3ncc4c(N5CC6CCC(C5)N6)nc(OCC56CCCN5CC(F)C6)nc4c3F)c12
IC50 [1]: 4560 nM
IC50 [2]: 4580 nM
IC50 [3]: 4300 nM
IC50 [4]: 4020 nM
IC50 (curve of first compound, second compound 3.16 µM): < 31.6 nM
IC50 (curve of first compound, second compound 10 µM): < 31.6 nM
viability, T/C [5]: 86.2%
viability, T/C [6]: 71.4%
viability, T/C [7]: 59%
viability, T/C [8]: 79.4%
viability, T/C (second compound 0.0316 µM, first compound 3.16 µM): 70%
viability, T/C (second compound 0.0316 µM, first compound 10 µM): 7.15%
viability, T/C [9]: 78.2%
viability, T/C [10]: 68.4%
viability, T/C [11]: 57.9%
viability, T/C [12]: 64.6%
viability, T/C (second compound 0.1 µM, first compound 3.16 µM): 80.6%
viability, T/C (second compound 0.1 µM, first compound 10 µM): 8.13%
viability, T/C [13]: 74.2%
viability, T/C [14]: 63.3%
viability, T/C [15]: 55%
viability, T/C [16]: 67.9%
viability, T/C (second compound 0.316 µM, first compound 3.16 µM): 67.1%
viability, T/C (second compound 0.316 µM, first compound 10 µM): 8.09%
viability, T/C [17]: 65.3%
viability, T/C [18]: 62.4%
viability, T/C [19]: 53.6%
viability, T/C [20]: 54.5%
viability, T/C (second compound 1 µM, first compound 3.16 µM): 70.7%
viability, T/C (second compound 1 µM, first compound 10 µM): 6.85%
viability, T/C (second compound 3.16 µM, first compound 0.0316 µM): 28.2%
viability, T/C (second compound 3.16 µM, first compound 0.1 µM): 28.9%
viability, T/C (second compound 3.16 µM, first compound 0.316 µM): 29%
viability, T/C (second compound 3.16 µM, first compound 1 µM): 43.6%
viability, T/C (second compound 3.16 µM, first compound 3.16 µM): 59.4%
viability, T/C (second compound 3.16 µM, first compound 10 µM): 5.28%
viability, T/C (second compound 10 µM, first compound 0.0316 µM): 15.6%
viability, T/C (second compound 10 µM, first compound 0.1 µM): 16.1%
viability, T/C (second compound 10 µM, first compound 0.316 µM): 21.9%
viability, T/C (second compound 10 µM, first compound 1 µM): 25.9%
viability, T/C (second compound 10 µM, first compound 3.16 µM): 30.2%
viability, T/C (second compound 10 µM, first compound 10 µM): 2.97%
